The record followed here is patent US6221865A, “Inhibitors of protein isoprenyl transferases” (priority 1998, dated 2001).

In the test the target is T1, protein farnesyltransferase (Rattus norvegicus, UniProt Q02293+Q04631).
T1 construct: The enzyme is purified according to Reiss, Y., et al., Cell, 62: 81-88 (1990), utilizing steps one through three; from tissue; host or cells: rat brain
Put plainly: Inhibition of farnesyltransferase (scintillation proximity assay, rat brain enzyme, biotin-K Ras B fragment substrate). Particulars: for inhibition at 0.01 µM: read-out: % inhibition at 0.01 μM (**); for inhibition at 0.1 µM: read-out: % inhibition at 0.1 μM (*). The class given is biochemical. An outline of the steps: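 Enzyme from rat brain, partly purified (steps one to three), assayed by SPA kit using 0.1 mM final biotin-K Ras B peptide as prenyl acceptor rather than biotin-lamin. Activity given as percent inhibition.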

Setting [1] is: Table 6, ** = 0.01 μM (footnote), title prints 0.01 mM.
Where [2] appears, read: Table 6, * = 0.1 μM (footnote), title prints 0.1 mM.

Structures can show the parent of a compound that is named as a salt.

T1 sequence (Q02293 whole entry, one chain of several): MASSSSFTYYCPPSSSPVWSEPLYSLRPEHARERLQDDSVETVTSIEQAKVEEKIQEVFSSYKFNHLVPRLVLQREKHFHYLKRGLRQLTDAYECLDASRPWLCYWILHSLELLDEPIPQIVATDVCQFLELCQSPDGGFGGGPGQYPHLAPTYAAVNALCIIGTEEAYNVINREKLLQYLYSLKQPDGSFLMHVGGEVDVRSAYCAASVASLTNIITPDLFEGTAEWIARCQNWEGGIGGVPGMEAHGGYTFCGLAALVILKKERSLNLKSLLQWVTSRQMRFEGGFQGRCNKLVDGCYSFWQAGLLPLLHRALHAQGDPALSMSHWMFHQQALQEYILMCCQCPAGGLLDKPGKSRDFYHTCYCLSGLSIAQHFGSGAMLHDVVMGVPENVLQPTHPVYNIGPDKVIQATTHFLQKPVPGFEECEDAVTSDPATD

In general, inhibition refers to how much of the control response was suppressed. Consider `CSCC[C@H](NC(=O)c1ccc(CP(=O)(CC2CCCCC2)CC2CCCCC2)cc1-c1ccccc1C)C(=O)O` [Example 1214, N-[4-(Di(cylohexylmethyl)(oxophosphinyl)methyl)-2-(2-methylphenyl)benzoyl]methionine], for which the inhibition at 0.01 µM under setting [1] amounted to 92%.
In the case of `CSCC[C@H](NC(=O)c1ccc(CP(=O)(CCC2CCCCC2)CCC2CCCCC2)cc1-c1ccccc1C)C(=O)O` [Example 1219, N-[4-(Di(2-cylohexylethyl)(oxophosphinyl)methyl)-2-(2-methylphenyl)benzoyl]methionine], the inhibition at 0.01 µM under setting [1] was 85%.
For `CCCCP(=O)(CCCC)Cc1ccc(C(=O)N[C@@H](CCSC)C(=O)O)c(-c2ccccc2C)c1` [Example 1222, N-[4-(Dibutyl(oxophosphinyl)methyl)-2-(2-methylphenyl)benzoyl]methionine], under setting [2], the inhibition at 0.1 µM came to 89%.
The % inhibition is how much of the control response was suppressed. Read a low % inhibition as a weak effect. With `CCCCC(OCc1ccc(C(=O)N[C@@H](CCSC)C(=O)[O-])c(-c2ccccc2C)c1)C1CCNCC1.[Li+]` (some centres unmarked) [Example 1288], the “% inhibition at 0.1 μM (*)” value under setting [2] amounted to 69%.
In the case of `CSCC[C@H](NC(=O)c1ccc(CC(CO)CCC2CCCCC2)cc1-c1ccccc1C)C(=O)O` (some centres unmarked) [Example 1299, N-[4-(2-(2-Cyclohexylethyl)-1-hydroxyprop-3-yl)-2-(2-methylphenyl)benzoyl]methionine Lithium Salt], the inhibition at 0.01 µM under setting [1] is 96%.
`CCSCC(CCC1CCCCC1)Cc1ccc(C(=O)N[C@@H](CCSC)C(=O)O)c(-c2ccccc2C)c1` (some centres unmarked) [Example 1300, N-[4-(2-(2-Cyclohexylethyl)-1-ethylthioprop-3-yl)-2-(2-methylphenyl)benzoyl]methionine Lithium Salt]: the inhibition at 0.1 µM under setting [2] amounted to 97%.
Consider `CSCC[C@H](NC(=O)c1ccc(CC(CCC2CCCCC2)C(=O)OC(C)(C)C)cc1-c1ccccc1C)C(=O)O` (some centres unmarked) [Example 1301, N-[4-(2-(2-cyclohexylethyl)t-butylpropion-3-yl)-2-(2-methylphenyl)benzoyl]methionine Lithium Salt], for which the inhibition at 0.1 µM under setting [2] came out at 97%.
For the compound `CSCC[C@H](NC(=O)c1ccc(CC(CCC2CCCCC2)S(=O)(=O)c2ccccc2)cc1-c1ccccc1C)C(=O)O` (some centres unmarked) [Example 1302, N-[4-(4-Cyclohexyl-2-phenylsulfonylbut-1-yl)-2-(2-methylphenyl)benzoyl]methionine Lithium Salt], the inhibition at 0.01 µM under setting [1] is 93%.
As to `CCSCC(CC1CCCCC1)NCc1cc(-c2ccccc2C)c(C(=O)N[C@@H](CCSC)C(=O)O)cc1OC` (some centres unmarked) [Example 1337], the “% inhibition at 0.01 μM (**)” value under setting [1] stood at 83%.
Turning to “N-[4-(2-fluoren-4-ylethyl)-2-(2-methylphenyl)benzoyl]methionine lithium salt [Example 464]”, the “% inhibition of farnesyltransferase at 1 × 10^-7 M” value (1 × 10^-7 M (Table 3)) turned out to be 86%.
“N-[4-(4-phenylcyclohexylidenyl)-2-(2-methylphenyl)benzoyl]methionine lithium salt [Example 789]”: the “% inhibition of farnesyltransferase at 1 × 10^-6 M” value (1 × 10^-6 M (Table 2)) is 86%.
